Source: article PMC6757289, “Design and Characterization of SGK3-PROTAC1, an Isoform Specific SGK3 Kinase PROTAC Degrader” (ACS Chemical Biology, 2019)
Read-outs that look alike come from different tables or passages of the source.

Experiments:
Assay in all cases: kinase profiling panel
Assay type in all cases: biochemical
AMPK (hum) = settings: 1 µM
Text: (§1) Protein kinase profiling against a Dundee panel of 140 protein kinases was undertaken at the International Centre for Protein Kinase Profiling. The result for each kinase was presented as a mean kinase activity of the reaction taken in triplicate relative to a control sample treated with DMSO. Assay conditions and abbreviations are available at http://www.kinase-screen.mrc.ac.uk.

EPH-B2 = target: T1, EPH-B2 (Homo sapiens, UniProt P29323); settings: read-out: % Activity Remaining
T1 sequence (P29323 19-1055): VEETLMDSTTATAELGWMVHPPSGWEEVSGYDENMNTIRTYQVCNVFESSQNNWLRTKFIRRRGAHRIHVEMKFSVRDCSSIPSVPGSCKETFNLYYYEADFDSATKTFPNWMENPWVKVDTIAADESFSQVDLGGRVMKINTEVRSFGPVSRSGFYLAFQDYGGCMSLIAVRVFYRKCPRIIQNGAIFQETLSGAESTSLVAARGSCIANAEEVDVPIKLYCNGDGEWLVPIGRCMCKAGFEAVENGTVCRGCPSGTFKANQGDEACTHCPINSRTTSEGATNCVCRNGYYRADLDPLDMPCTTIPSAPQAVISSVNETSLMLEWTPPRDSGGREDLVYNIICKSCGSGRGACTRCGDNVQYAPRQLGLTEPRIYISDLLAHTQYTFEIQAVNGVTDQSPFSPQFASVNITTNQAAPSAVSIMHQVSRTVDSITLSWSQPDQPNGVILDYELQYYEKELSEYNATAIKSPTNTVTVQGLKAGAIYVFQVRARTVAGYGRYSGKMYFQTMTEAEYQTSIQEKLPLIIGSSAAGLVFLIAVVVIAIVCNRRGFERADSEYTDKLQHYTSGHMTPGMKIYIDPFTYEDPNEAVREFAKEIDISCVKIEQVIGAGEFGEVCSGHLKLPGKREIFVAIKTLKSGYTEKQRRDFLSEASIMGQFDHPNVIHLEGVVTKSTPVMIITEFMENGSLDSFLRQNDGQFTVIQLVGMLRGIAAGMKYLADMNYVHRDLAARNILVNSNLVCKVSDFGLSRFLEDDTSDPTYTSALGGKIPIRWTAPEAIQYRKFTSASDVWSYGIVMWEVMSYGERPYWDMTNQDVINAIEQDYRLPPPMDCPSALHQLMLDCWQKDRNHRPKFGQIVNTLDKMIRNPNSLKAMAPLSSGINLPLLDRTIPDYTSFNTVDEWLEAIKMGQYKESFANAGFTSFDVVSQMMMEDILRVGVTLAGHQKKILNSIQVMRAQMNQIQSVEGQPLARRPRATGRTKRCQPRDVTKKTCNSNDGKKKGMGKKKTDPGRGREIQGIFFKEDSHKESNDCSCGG
Text: as §1

SGK1 = target: T2, SGK1 (Homo sapiens, UniProt O00141); settings: read-out: % Activity Remaining
T2 sequence (O00141 1-431): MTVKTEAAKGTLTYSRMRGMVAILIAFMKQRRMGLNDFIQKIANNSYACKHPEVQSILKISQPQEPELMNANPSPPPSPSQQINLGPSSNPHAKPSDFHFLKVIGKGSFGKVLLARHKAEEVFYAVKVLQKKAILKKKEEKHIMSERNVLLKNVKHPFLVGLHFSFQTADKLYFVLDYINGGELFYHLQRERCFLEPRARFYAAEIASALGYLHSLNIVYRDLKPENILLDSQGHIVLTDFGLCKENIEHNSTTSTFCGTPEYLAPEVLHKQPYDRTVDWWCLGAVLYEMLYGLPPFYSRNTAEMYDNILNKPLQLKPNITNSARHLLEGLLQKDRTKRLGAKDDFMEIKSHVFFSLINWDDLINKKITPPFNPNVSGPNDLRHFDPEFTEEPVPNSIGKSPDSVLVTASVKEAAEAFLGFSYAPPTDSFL
Text: as §1

TLK1 = target: T3, TLK1 (Homo sapiens, UniProt Q9UKI8); settings: read-out: % Activity Remaining
T3 sequence (Q9UKI8 1-766): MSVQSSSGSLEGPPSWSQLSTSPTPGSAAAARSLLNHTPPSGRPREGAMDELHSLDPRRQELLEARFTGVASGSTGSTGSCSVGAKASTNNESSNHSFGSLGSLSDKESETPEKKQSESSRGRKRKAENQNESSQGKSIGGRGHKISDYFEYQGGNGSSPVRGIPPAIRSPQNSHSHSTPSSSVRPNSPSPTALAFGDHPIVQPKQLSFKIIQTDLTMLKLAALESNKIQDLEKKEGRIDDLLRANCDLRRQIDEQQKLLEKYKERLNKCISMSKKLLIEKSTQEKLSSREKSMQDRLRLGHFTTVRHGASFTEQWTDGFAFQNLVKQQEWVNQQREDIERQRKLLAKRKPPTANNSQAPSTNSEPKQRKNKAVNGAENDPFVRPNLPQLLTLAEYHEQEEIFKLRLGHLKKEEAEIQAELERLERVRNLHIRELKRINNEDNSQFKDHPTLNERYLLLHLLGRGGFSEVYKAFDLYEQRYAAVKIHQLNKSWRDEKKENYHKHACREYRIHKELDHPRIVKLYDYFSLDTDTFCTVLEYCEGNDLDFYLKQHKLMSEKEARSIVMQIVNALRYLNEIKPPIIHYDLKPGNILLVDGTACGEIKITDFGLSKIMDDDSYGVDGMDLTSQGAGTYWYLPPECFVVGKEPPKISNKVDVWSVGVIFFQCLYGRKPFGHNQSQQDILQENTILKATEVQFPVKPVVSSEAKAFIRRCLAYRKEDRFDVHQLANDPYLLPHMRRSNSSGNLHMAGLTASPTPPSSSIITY
Text: as §1

| Structure (SMILES) | % Activity Remaining (AMPK (hum)) [%] | remaining activity at 1 µM (EPH-B2) [%] | remaining activity at 1 µM (SGK1) [%] | remaining activity at 1 µM (TLK1) [%] | remaining activity at 1 µM (EPH-B2; 1 µM) [%] | remaining activity at 1 µM (SGK1; 1 µM) [%] | remaining activity at 1 µM (TLK1; 1 µM) [%] |
| --- | --- | --- | --- | --- | --- | --- | --- |
| COc1ccc(Cl)c(S(=O)(=O)Nc2ccc(-c3nc(OC[C@H]4CNCCO4)c4c(C)n[nH]c4n3)cc2)c1 [290-R, reference compound] | 15 | 120 | 2 | 89 | – | – | – |
| Cc1ccc(F)c(S(=O)(=O)Nc2ccc(-c3nc(OC[C@H]4CNCCO4)c4cn[nH]c4n3)cc2)c1 [308-R, reference compound] | 78 | 56 | 10 | 108 | – | – | – |
| Cc1ccc(F)c(S(=O)(=O)Nc2ccc(-c3nc(OC[C@H]4CN(CCCCCCOCCOCCOCC(=O)N[C@H](C(=O)N5C[C@H](O)C[C@H]5C(=O)NCc5ccc(-c6scnc6C)cc5)C(C)(C)C)CCO4)c4cn[nH]c4n3)cc2)c1 [SGK3-PROTAC1] | 105 | – | – | – | 94 | 34 | 102 |
| Cc1ccc(F)c(S(=O)(=O)Nc2ccc(-c3nc(OC[C@H]4CN(CCCCCCOCCOCCOCC(=O)N[C@H](C(=O)N5C[C@@H](O)C[C@H]5C(=O)NCc5ccc(-c6scnc6C)cc5)C(C)(C)C)CCO4)c4cn[nH]c4n3)cc2)c1 [cisSGK3-PROTAC1] | 108 | – | – | – | 97 | 51 | 109 |
